Laboratory results from DBAASP.
Converted amounts (≈) assume the structure as drawn. Each block holds one compound with its values, some of them ahead of it.

Legend:
Assay in all cases: ≥ marks a high value that may be exact or a test limit, other limits are often not marked, values filed in µg/mL are converted to µM
[1] = system: Staphylococcus aureus
[2] = system: Streptococcus sanguinis
[3] = system: Bacillus megaterium CIP 51.17
[4] = system: Listeria monocytogenes CIP 110871
[5] = system: Salmonella typhimurium CIP 103446
[6] = system: Aeromonas salmonicida CIP 103209T
[7] = system: Enterococcus faecalis CIP 76.117
[8] = system: Staphylococcus aureus CIP 53.156
[9] = system: Escherichia coli CIP 54.8T
[10] = system: Candida albicans ATCC 90028
[11] = system: Acinetobacter baumannii ATCC 19606
[12] = system: Klebsiella pneumoniae ATCC 700603
[13] = system: Klebsiella pneumoniae ATCC BAA-2146
[14] = system: Cryptococcus neoformans ATCC 208821
[15] = system: Pseudomonas aeruginosa ATCC 27853
[16] = system: Klebsiella pneumoniae ATCC 13883
[17] = system: Escherichia coli ATCC 25922
[18] = system: Staphylococcus aureus ATCC 43300
[19] = system: Bacillus subtilis ATCC 6051
[20] = system: Klebsiella pneumoniae
[21] = system: Pseudomonas aeruginosa
[22] = system: Acinetobacter baumannii
[23] = system: Listeria monocytogenes EGD
[24] = system: Staphylococcus aureus ATCC 25923
[25] = system: Escherichia coli ML-35p
[26] = system: Candida albicans ATCC 2002
[27] = system: Bacillus subtilis
[28] = system: Listeria monocytogenes ATCC 19115
[29] = system: Escherichia coli
[30] = system: Streptococcus pyogenes ATCC 19615
[31] = system: Salmonella enterica subsp. enterica serovar Typhimurium ATCC 14028
[32] = system: Enterococcus faecalis ATCC 29212
[33] = system: Staphylococcus aureus ATCC BAA-44
[34] = system: Staphylococcus epidermidis ATCC 51625

SMILES: NC(=O)[C@H](Cc1ccccc1)NC(=O)[C@H](Cc1ccccc1)NC(=O)[C@H](Cc1ccccc1)NC(=O)[C@H](Cc1ccccc1)NC(=O)[C@H](Cc1ccccc1)NC(=O)[C@H](Cc1ccccc1)NC(=O)[C@@H](N)Cc1ccccc1 [FFFFFFF]
MIC [1]: 3.3 µM (≈ 3.46 µg/mL) | MIC [2]: 3.3 µM (≈ 3.46 µg/mL)

SMILES: CC[C@H](C)[C@H](NC(=O)[C@H](CC(C)C)NC(=O)[C@H](Cc1cnc[nH]1)NC(=O)[C@H](Cc1ccccc1)NC(=O)[C@H](CO)NC(=O)[C@@H](NC(=O)[C@H](CO)NC(=O)CN)[C@@H](C)O)C(=O)N[C@@H](Cc1ccc(O)cc1)C(=O)N[C@@H](CC(N)=O)C(=O)N[C@@H](CCCCN)C(=O)N[C@@H](Cc1c[nH]c2ccccc12)C(=O)N[C@@H](Cc1ccccc1)C(=O)N[C@@H](C)C(=O)N[C@H](C(=O)N[C@@H](CCCCN)C(=O)N[C@@H](CCCN=C(N)N)C(=O)N[C@@H](CCCN=C(N)N)C(=O)N[C@@H](CCCN=C(N)N)C(=O)N[C@@H](CCCCN)C(=O)N[C@@H](CCCN=C(N)N)C(=O)O)C(C)C [GSTSFHLIYNKWFAVKRRRKR]
MIC [3]: 3.16 µM (≈ 8.38 µg/mL) | MIC [4]: ≥ 35.4 µM | MIC [5]: ≥ 50 µM | MIC [6]: 5 µM (≈ 13.3 µg/mL) | MIC [7]: ≥ 86.6 µM | MIC [8]: 5.1 µM (≈ 13.5 µg/mL) | MIC [9]: 3.16 µM (≈ 8.38 µg/mL)

SMILES: CC[C@H](C)[C@@H]1NC(=O)CNC(=O)[C@H](CCCN=C(N)N)NC(=O)[C@H](Cc2ccc(O)cc2)NC(=O)[C@@H]2CSSC[C@H](NC1=O)C(=O)N[C@@H](Cc1ccc(O)cc1)C(=O)N[C@@H](C)C(=O)N[C@@H](CCCN=C(N)N)C(=O)N[C@H](C(=O)N[C@@H](CCCN=C(N)N)C(=O)O)CSSC[C@H](NC(=O)[C@H](Cc1c[nH]c3ccccc13)NC(=O)[C@@H](N)CCCCN)C(=O)N[C@@H](Cc1ccccc1)C(=O)N[C@@H](CCCN=C(N)N)C(=O)N[C@@H](C(C)C)C(=O)N2 [KWCFRVCYRGICYARCR]
MIC [10]: 3.66 µM (≈ 7.99 µg/mL) | MIC [11]: 0.0572 µM (≈ 0.125 µg/mL) | MIC [12]: 0.229 µM (≈ 0.499 µg/mL) | MIC [13]: 0.115 µM (≈ 0.25 µg/mL) | MIC [14]: 0.115 µM (≈ 0.25 µg/mL) | MIC [15]: 0.0572 µM (≈ 0.125 µg/mL) | MIC [16]: 0.0275 µM (≈ 0.0599 µg/mL) | MIC [17]: 0.0572 µM (≈ 0.125 µg/mL) | MIC [18]: 0.229 µM (≈ 0.499 µg/mL) | MIC [19]: 0.0572 µM (≈ 0.125 µg/mL) | MIC [20]: 0.458 µM (≈ 0.998 µg/mL) | MIC [21]: 0.115 µM (≈ 0.25 µg/mL) | MIC [22]: 0.0572 µM (≈ 0.125 µg/mL)

SMILES: CC(C)C[C@H](N)C(=O)N[C@@H](Cc1ccccc1)C(=O)N[C@@H](Cc1ccccc1)C(=O)N[C@@H](Cc1ccccc1)C(=O)N[C@@H](Cc1ccccc1)C(=O)N[C@@H](Cc1ccccc1)C(N)=O [LFFFFF]
MIC [1]: 29.4 µM (≈ 25.5 µg/mL) | MIC [2]: ≥ 32.6 µM

SMILES: CC(C)C[C@H](NC(=O)[C@H](CC(C)C)NC(=O)[C@H](CCC(N)=O)NC(=O)[C@H](CCCCN)NC(=O)[C@H](CC(C)C)NC(=O)[C@H](CCCCN)NC(=O)[C@H](CCCCN)NC(=O)[C@@H](N)CC(C)C)C(=O)NCC(=O)N[C@@H](CCCCN)C(=O)N[C@@H](CC(C)C)C(=O)N[C@@H](CO)C(=O)N[C@@H](CCC(=O)O)C(=O)N[C@@H](Cc1ccccc1)C(=O)N[C@@H](C)C(=O)N[C@@H](C)C(=O)N[C@@H](C)C(=O)N[C@@H](Cc1ccccc1)C(=O)N[C@H](C(=O)N[C@@H](C)C(N)=O)C(C)C [LKKLKQLLGKLSEFAAAFVA]
MIC [15]: 16 µM (≈ 34.8 µg/mL) | MIC [17]: 32 µM (≈ 69.6 µg/mL) | MIC [23]: 8 µM (≈ 17.4 µg/mL) | MIC [24]: 32 µM (≈ 69.6 µg/mL)

SMILES: CC(C)C[C@H](NC(=O)[C@H](C)NC(=O)[C@@H](NC(=O)[C@H](C)NC(=O)[C@H](CC(C)C)NC(=O)[C@H](CCCCN)NC(=O)[C@H](Cc1ccccc1)NC(=O)[C@H](CCCCN)NC(=O)[C@H](C)NC(=O)[C@@H](N)CO)C(C)C)C(=O)NCC(=O)N[C@@H](CCC(N)=O)C(=O)N[C@@H](Cc1ccccc1)C(=O)N[C@@H](CCCCN)C(=O)N[C@@H](CCC(=O)O)C(=O)N[C@@H](CCCCN)C(=O)N[C@@H](CC(C)C)C(=O)N[C@@H](CC(C)C)C(=O)N[C@@H](CC(C)C)C(=O)N[C@@H](C)C(N)=O [SAKFKLAVALGQFKEKLLLA]
MIC [23]: ≥ 128 µM

Further lines, results first:

MIC [25]: 7.13 µM (≈ 25 µg/mL) | MIC [26]: 1.61 µM (≈ 5.63 µg/mL) | MIC [27]: 2.68 µM (≈ 9.37 µg/mL) | MIC [15]: > 28.5 µM | MIC [24]: 1.34 µM (≈ 4.69 µg/mL)
SMILES: CC[C@H](C)[C@H](NC(=O)[C@H](C)NC(=O)[C@@H](NC(=O)[C@@H](NC(=O)[C@H](CCCCN)NC(=O)[C@@H](NC(=O)[C@H](CCCCN)NC(=O)[C@H](CC(=O)O)NC(=O)[C@H](CCCN=C(N)N)NC(=O)[C@@H](NC(=O)[C@@H](N)CO)[C@@H](C)CC)[C@@H](C)CC)[C@@H](C)O)[C@@H](C)CC)C(=O)N[C@@H](CC(=O)O)C(=O)N[C@@H](CC(C)C)C(=O)N[C@@H](C)C(=O)N[C@@H](CCCCN)C(=O)N[C@@H](CO)C(=O)N[C@@H](C)C(=O)NCC(=O)N[C@H](C(=O)NCC(=O)N[C@H](C(=O)N[C@@H](CC(C)C)C(=O)N[C@@H](CCCCN)C(=O)N[C@H](C(=O)N[C@@H](CC(C)C)C(=O)N[C@H](C(=O)N[C@H]1CSSC[C@@H](C(=O)O)NC(=O)[C@H](CO)NC(=O)[C@H](CCCCN)NC(=O)[C@H](CC(=O)O)NC(=O)[C@H](CC(C)C)NC(=O)[C@H](CCCCN)NC1=O)[C@@H](C)CC)[C@@H](C)O)C(C)C)[C@@H](C)O [SIRDKIKTIAIDLAKSAGTGVLKTLICKLDKSC]

MIC [28]: ≥ 382 µM
SMILES: CC(C)C[C@H](NC(=O)[C@H](Cc1ccccc1)NC(=O)[C@@H]1CCCN1C(=O)[C@@H]1CCCN1C(=O)[C@H](CC(N)=O)NC(=O)[C@@H](NC(=O)[C@@H](NC(=O)[C@@H]1CCCN1C(=O)[C@@H](N)[C@@H](C)O)C(C)C)C(C)C)C(=O)N[C@@H](CCC(N)=O)C(=O)N[C@@H](CCC(N)=O)C(=O)N[C@H](C(N)=O)[C@@H](C)O [TPVVNPPFLQQT]

MIC [29]: 4 µM (≈ 11.8 µg/mL) | MIC [30]: 6 µM (≈ 17.8 µg/mL) | MIC [27]: 4 µM (≈ 11.8 µg/mL) | MIC [15]: 4 µM (≈ 11.8 µg/mL) | MIC [16]: 2 µM (≈ 5.92 µg/mL) | MIC [31]: 4 µM (≈ 11.8 µg/mL) | MIC [32]: 4 µM (≈ 11.8 µg/mL) | MIC [33]: 6 µM (≈ 17.8 µg/mL) | MIC [24]: 4 µM (≈ 11.8 µg/mL) | MIC [34]: 6 µM (≈ 17.8 µg/mL)
SMILES: CC(C)C[C@H](NC(=O)[C@H](CO)NC(=O)[C@H](CCCN=C(N)N)NC(=O)[C@H](CCCCN)NC(=O)[C@@H](NC(=O)[C@@H](NC(=O)CNC(=O)[C@H](CCCN=C(N)N)NC(=O)[C@H](Cc1cnc[nH]1)NC(=O)[C@H](Cc1c[nH]c2ccccc12)NC(=O)[C@H](Cc1ccccc1)NC(=O)[C@H](Cc1cnc[nH]1)NC(=O)[C@H](Cc1ccc(O)cc1)NC(=O)[C@@H](N)Cc1ccc(O)cc1)C(C)C)[C@@H](C)O)C(=O)N[C@@H](CO)C(=O)N1CCC[C@H]1C(=O)N[C@@H](Cc1cnc[nH]1)C(=O)N[C@@H](CCCN=C(N)N)C(=O)N1CCC[C@H]1C(=O)N[C@@H](CCCN=C(N)N)C(=O)N[C@@H](Cc1cnc[nH]1)C(=O)N[C@@H](CO)C(=O)N[C@@H](CCCN=C(N)N)C(=O)O [YYHFWHRGVTKRSLSPHRPRHSR]
